The source of these data is US20240158367A1, “TRICYCLIC COMPOUND AS HIF2-ALPHA INHIBITOR, PREPARATION METHOD THEREFOR AND APPLICATION THEREOF” (SHANGHAI JEMINCARE PHARMACEUTICALS CO., LTD, priority 2021, published 2024).

By EC50 is commonly meant the concentration giving half of the maximal effect. In general, AUC(0-inf) refers to the area under the concentration-time curve extrapolated to infinity. What is called Cmax is the peak of the concentration-time curve.

For data set [1], the system named is VEGF expression in 786-O cells. Briefly: VEGF ELISA assay in 786-O cells. The class given is cell-based. The conditions noted are these: about 48 hours incubation. The protocol: 100×DMSO stock solution dissolved with the drug was prepared in assay medium (RPMI-1640 containing 2% FBS; FBS: 10099141C, Gibco; RPMI-1640: 12440053, Gibco) to formulate a series of dilutions of 10×compounds. To a clear flat-bottom 96-well plate (3599, Corning) was added 20 μL of the 10×compound dilution. Then approximately 40,000 786-O cells (ATCC®CRL-1932™) in 180 μL of culture medium were seeded into the 96-well plate. The final concentration of DMSO (D2650, Sigma) in each well was 0.1%. After incubating in the incubator for about 48 hours, 100 μL of the upper medium from each well was pipetted and placed in a new 96-well plate (3799, Corning). An ELISA kit (DY293B, R&D Systems) was used. The concentration of VEGF was determined according to the OD value of each well at […] detected by a microplate reader. EC50 values were calculated by GraphPad Prism software using the dose-response-inhibition (four parameter) equation.

Data set [2] relates to HIF response element(HRE)-dependent luciferase in 786-O-HRE-Luc cells. The data set can be described thus: Luciferase assay in 786-O-HRE-Luc cells. The class given is cell-based. The conditions noted are these: approximately 24 hours incubation. On the procedure:
786-O-HRE-Luc cells were obtained by infecting 786-O (ATCC®CRL-1932™) cells purchased from ATCC with commercial lentivirus. Appropriate 786-O-HRE-Luc single cell clones were screened, expanded, and used for the subsequent luciferase assay. For the luciferase assay, 100×DMSO stock solution dissolved with the drug was prepared in assay medium (RPMI-1640 containing 2% FBS; FBS: 10099141C, Gibco; RPMI-1640: 12440053, Gibco) to formulate a series of dilutions of 10×compounds. To a clear flat-bottom 96-well plate (3599, Corning) was added 20 μL of the 10×compound dilution. Then approximately 100,000 786-O-HRE-Luc cells in 180 μL of culture medium were seeded into the 96-well plate. The final concentration of DMSO (D2650, Sigma) in each well was 0.1%. After approximately 24 hours of incubation in the incubator, luciferase activity was determined using the Dual-Luciferase Reporter Assay System (E1960, Promega) reagent following the manufacturer's recommended method. EC50 values were calculated by GraphPad Prism software using the dose-response-inhibition (four parameter) equation.

The nature of data set [3]: Pharmacokinetic test in SD rats by gavage.
Method: animals: SD rats, male, 200 to 220 g, purchased from Shanghai Jiesijie Laboratory Animal Co., Ltd.
The SD rats in each test compound group (3 rats in each group) were fasted overnight and then intragastrically administered the compounds (PO, administration dosage of 10 mg/kg or 5 mg/kg, administration volume of 10 mL/kg), and given food 4 hours after administration.
Approximately 0.2 mL of blood was collected from the jugular vein before administration and 0.083 hours, 0.25 hours, 0.5 hours, 1 hour, 2 hours, 4 hours, 6 hours, 8 hours, and 24 hours after administration, anticoagulated with sodium heparin. Blood samples were placed on ice after collection, and plasma was separated by centrifugation (centrifugation conditions: 1500 g, 10 minutes). The collected plasma was stored at −40° C. to −20° C. before analysis.
LC-MS/MS was used to determine the content of the test compound in rat plasma after intragastric administration.
Setting [4] is: SD rats, male, PO 10 mg/kg, plasma.
The mark [5] stands for this setting: male, SD, rat, in vivo, po, 5 mg/kg.

Take `N=S1(=O)c2ccc(Oc3cc(F)cc(Cl)c3)c3c2C(O)(CC3F)C1(F)F` (centres unmarked) [Compound 1]: the response in data set [1] was half-maximal at 115 nM (EC50).

As for `N#Cc1cc(F)cc(Oc2ccc3c4c2C(F)CC4(O)C(F)(F)S3(=N)=O)c1` (centres unmarked) [Compound 2], in data set [2], it took 46 nM to reach a half-maximal effect (EC50).

Take `N#Cc1cncc(Oc2ccc3c4c2[C@@H](F)[C@H](F)[C@]4(O)C(F)(F)S3(=O)=O)c1` [Compound 3-P1]: the EC50 was determined as 67.7 nM in data set [2] and 180 nM in data set [1].

With `N#Cc1cncc(Oc2ccc3c4c2[C@H](F)[C@@H](F)[C@@]4(O)C(F)(F)S3(=O)=O)c1` [Compound 3-P2], the EC50 amounted to 3990 nM in data set [2] and 2760 nM in data set [1].

Regarding `N#Cc1cncc(Oc2ccc3c4c2[C@@H](F)[C@@H](F)[C@]4(O)C(F)(F)S3(=O)=O)c1` [Compound 3-P3], in data set [3] (SD rats, PO, 10 mg/kg vs PT2385 5 mg/kg), the “Plasma concentration and area under the curve compared with comparative example PT2385” value is “significantly improved plasma concentration and area under the curve”. Further, in data set [3] (setting [4]), the “Area under the curve AUC0-∞” value was 24806 ng·h/mL and the “Plasma concentration Cmax” value was 4646 ng/mL. The same compound returned an EC50 in data set [2] of 12.2 nM. The same compound returned an EC50 in data set [1] of 30.9 nM.

`N#Cc1cncc(Oc2ccc3c4c2[C@H](F)[C@H](F)[C@@]4(O)C(F)(F)S3(=O)=O)c1` [Compound 3-P4]: the results for the EC50 in data set [2] and in data set [1] were 6410 nM and 4920 nM, respectively.

In the case of `N#Cc1cc(F)cc(Oc2ccc3c4c2[C@@H](F)[C@H](F)[C@]4(O)C(F)(F)S3(=O)=O)c1` [Compound 4-P1], the EC50 in data set [2] was 19.2 nM; in data set [1], 40.5 nM.

On to `N#Cc1cc(F)cc(Oc2ccc3c4c2[C@H](F)[C@@H](F)[C@@]4(O)C(F)(F)S3(=O)=O)c1` [Compound 4-P2], for which the 50% effective concentration (EC50) in data set [2] amounted to 48.5 nM; in data set [1], 54.4 nM.

Regarding `N#Cc1cc(F)cc(Oc2ccc3c4c2[C@@H](F)[C@@H](F)[C@]4(O)C(F)(F)S3(=O)=O)c1` [Compound 4-P3], the EC50 came to 6.1 nM in data set [2] and 15.2 nM in data set [1].

Regarding `N#Cc1cc(F)cc(Oc2ccc3c4c2[C@H](F)[C@H](F)[C@@]4(O)C(F)(F)S3(=O)=O)c1` [Compound 4-P4], the figures for the EC50 in data set [2] and in data set [1] were 511 nM and 737 nM, respectively.

In data set [3] (setting [5]), `CS(=O)(=O)c1ccc(Oc2cc(F)cc(C#N)c2)c2c1[C@H](O)C(F)(F)C2` [PT2385, reference compound] registered an area under the curve AUC(0-inf) of 843 ng·h/mL and a Cmax of 193 ng/mL.
